Measured values from patent publication US8058264B2, “Pharmaceutical compositions comprising CB1 cannabinoid receptor antagonists and potassium channel openers for the treatment of obesity and related conditions” (Abbott Products GmbH, priority 2004, dated 2011).

Key:
[1] = test system: rat perifused pancreatic islets; assay: Insulin secretion in rat perifused pancreatic islets, simple screen at 11 mM glucose; type: cell-based; conditions: for effect on insulin secretion: 0-30 and 30-60 min
Description: Animals: Male Wistar rats in the weight range 175-200 g were group housed in standard animal cages at a temperature of 21±2° C. and humidity of 55±10%. Animals were maintained on a 12 h light-dark cycle (lights on 06.00-18.00 h) with free access to standard rodent diet (B&K Universal Ltd standard rat and mouse diet (BK 001P), Beekay Feeds, B&K Universal Ltd, Hull, East Riding of Yorkshire) and tap water. The rats were accustomed to these conditions for at least one week before experimentation.
(§1) Experimental procedures: After the rats were sacrificed, the branch of the bile duct leading to the liver and the duodenal end of the duct in the pancreas were clamped and the pancreas distended by injection of ice-cold 0.9 mg/ml collagenase solution into the bile duct. The pancreas were then removed and incubated statically for 10-12 min at 37° C. Following the incubation, 10 ml of cold buffer was added and the suspension shaken vigorously by hand for 1 min. The islets were allowed to settle for 5 min on ice and washed three times using ice-cold buffer. Well formed and good sized islets from 3 rats were hand-picked (under a low power microscope) and pooled and a final selection of islet transferred to the perifusion apparatus. Oxygenated (95% O2/5% CO2) Gey & Gey buffer containing 1 mg/ml bovine serum albumin and 4 mM glucose were used throughout the experiment unless otherwise stated (see Dickinson et al. Eur J Pharmacol 1997;339:69-76 for further details).
(§2) On each day, two experiments were performed in parallel in 2 identical, independent sets of perifusion apparatus each consisting of sufficient number of chambers. Each chamber was loaded with 20 hand-picked islets. Islets were perifused for an initial 30 min period in media containing 4 mM glucose. Perifusate was then collected at 2 min intervals for the remainder of the experiment.
Perifusate samples were then pooled to create 3 samples per chamber as follows: Baseline (4 mM): Samples 1-5 (first 10 minutes); 0-30 minutes (11 mM glucose): Samples 6-21; 30-60 minutes (11 mM glucose): Samples 22-36.
Perifusate fractions were stored at −75° C. until required for insulin assay. Insulin content of fractions were assayed using a 96-well ELISA assay (Mercodia). Initial insulin assays were performed in triplicate on three pooled fractions from each chamber (18 samples per experiment, 108 samples in total for 6 experiments).

hamster SUR1 = molecular target: T1, hamster SUR1 (Cricetus cricetus, UniProt Q09427); assay: Competitive binding to sulfonylurea and KCO sites of SUR1 ([3H]glibenclamide displacement, COS-cell membranes); conditions: SUR1 versus SUR2 selectivity, in words
T1 construct: expressed in transfected cells; host or cells: COS-1 cells, transient transfection (pcDNA vector), membrane preparation
Description: Competitive binding experiments were performed to characterize the affinity of the test compounds for the binding sites for sulfonylureas and KATP channel openers (=KCOs) on hamster SUR1. To assess the affinity for the sulfonylurea site membranes from COS-cells transiently expressing hamster SUR1 were incubated in the presence of [^3H]glibenclamide with increasing concentrations of test compounds. […] Per curve 9-15 distinct concentrations were tested covering the relevant range. All measurements were repeated at least 5 times in independent experiments.
[^3H]glibenclamide (specific activity 51 Ci mmol^−1) was obtained from NEN (Dreieich, Germany). If suitable, stock solutions were prepared in dimethylsulfoxide with a final solvent concentration in the media below 1%.
SUR- or Kir6.x isoforms were used either subcloned in the pcDNA (hamster SUR1, mouse Kir6.2) or pCMV vector (rat SUR2A, SUR2B).
For transfection the cells were incubated 4 hours in a Tris-buffered salt solution containing DNA (5-10 μg/ml) plus DEAE-dextran (1 mg/ml), 2 min in HEPES-buffered salt solution plus dimethylsulfoxide (10%) and 4 hours in DMEM-HG plus chloroquine (100 μM). Cells were then returned to DMEM-HG plus 10% FCS. […] For binding experiments resuspended membranes (final protein concentration 5-50 μg/ml) were incubated in “Tris-buffer” (50 mM, pH 7.4) containing either [^3H]glibenclamide (final concentration 0.3 nM or 3 nM and nonspecific binding defined by 100 nM or 1 μM glibenclamide for SUR1 or SUR2Y1205S-isoforms, respectively) or [^3H]P1075 (final concentration 3 nM, nonspecific binding defined by 100 μM pinacidil) and increasing concentrations of the test compounds. […] Incubations were carried out for 1 h at room temperature and were terminated by rapid filtration through Whatman GF/B filters.
The inhibition constant (Ki value) of the test substances was calculated from the respective IC50 value, and was stated as the negative logarithmised value thereof (pKi).

[2] = test system: rat perifused pancreatic islets; assay: Insulin secretion in rat perifused pancreatic islets, in depth investigation (Phase 1 and Phase 2); type: cell-based
Description: Animals: Male Wistar rats in the weight range 175-200 g were group housed in standard animal cages at a temperature of 21±2° C. and humidity of 55±10%. Animals were maintained on a 12 h light-dark cycle (lights on 06.00-18.00 h) with free access to standard rodent diet (B&K Universal Ltd standard rat and mouse diet (BK 001 P), Beekay Feeds, B&K Universal Ltd, Hull, East Riding of Yorkshire) and tap water. The rats were accustomed to these conditions for at least one week before experimentation.
as §1, with “procedures: Three rats (sufficient for” for “procedures: After”, “the isolation of enough islets to allow for 2 perifusion experiments per day)” for “the rats”
as §2, with “was” for “was then”, “experiment. After the first 10 min of the experiment (to collect baseline insulin values), the media in each chamber were switched to one containing the relevant drug concentration/vehicle/glucose concentration and perifusate collected for a further 62 min to produce a total of 36 fractions for each chamber.” for “experiment.”
Experiments were organised to evaluate firstly (Phase I) the effect of Compounds at a single concentration on glucose-stimulated insulin secretion (two independent sets of experiments) and secondly (Phase II), determination of the dose-dependent effect of these compounds to inhibit insulin secretion at 11 mM glucose (three independent sets of experiments).
Perifusate fractions were stored at −75° C. until required for insulin assay. Insulin content of fractions were assayed using a 96-well ELISA assay (Mercodia). Initial insulin assays were performed on only every third fraction (72 assays per experiment).

[3] = test system: male sugar rats [Ico: ZUCKER-fa/fa (fatty)]; assay: 2 week chronic administration: body weight gain in male sugar rats (ZUCKER-fa/fa); type: in vivo, rat; conditions: for decrease of body weight in comparison to vehicle-treated rats: day 14
Description: Studies were performed in male sugar rats [[Ico: ZUCKER-fa/fa (fatty) (Orl] (Charles River France) weighing initially 400 to 490 g. Animals were housed two or three in a plastic cage in a temperature (20-24° C.), relative humidity (45-65%) and 12-h light/dark cycle (light 7:00 a.m. to 7:00 p.m.)—controlled room for 6 days before being used. All animals had free access to filtered tap water and standard pelleted laboratory chow (U.A.R., Villemois-son-sur-Orge, France). Animals were individually identified on the tail.
At the end of the acclimatization period, animals were individually housed in wire-topped plastic cages. A pre-weighed quantity of food and water were placed on the roof grids. Each rat was acclimated to the handling and dosing procedure the 3 days preceding the start of treatment. Water and food intake was measured during the 24 h that followed dosing procedure to establish baseline food and water intake for each animal. Thereafter, the rats were randomly assigned to either vehicle or drug treatment groups.
Between 9:00-10:00 a.m. on the day of study, the animals were injected p.o. with either vehicle or differing doses of test compounds in a volume of 2 ml/kg each day for 14 consecutive days. During the 5-day post-treatment period, vehicle was given to all groups.
Daily food and water intake was determined per cage throughout the 14-day treatment period and the 5-day post-treatment period. Individual body weights were checked daily for the subsequent treatment and post-treatment periods. Data were collected before each dosing procedure.

[4] = test system: glucose-stimulated insulin release; assay: Inhibition of glucose-stimulated insulin release (NN-414 versus diazoxide); type: cell-based

T1 sequence (Q09427 whole entry): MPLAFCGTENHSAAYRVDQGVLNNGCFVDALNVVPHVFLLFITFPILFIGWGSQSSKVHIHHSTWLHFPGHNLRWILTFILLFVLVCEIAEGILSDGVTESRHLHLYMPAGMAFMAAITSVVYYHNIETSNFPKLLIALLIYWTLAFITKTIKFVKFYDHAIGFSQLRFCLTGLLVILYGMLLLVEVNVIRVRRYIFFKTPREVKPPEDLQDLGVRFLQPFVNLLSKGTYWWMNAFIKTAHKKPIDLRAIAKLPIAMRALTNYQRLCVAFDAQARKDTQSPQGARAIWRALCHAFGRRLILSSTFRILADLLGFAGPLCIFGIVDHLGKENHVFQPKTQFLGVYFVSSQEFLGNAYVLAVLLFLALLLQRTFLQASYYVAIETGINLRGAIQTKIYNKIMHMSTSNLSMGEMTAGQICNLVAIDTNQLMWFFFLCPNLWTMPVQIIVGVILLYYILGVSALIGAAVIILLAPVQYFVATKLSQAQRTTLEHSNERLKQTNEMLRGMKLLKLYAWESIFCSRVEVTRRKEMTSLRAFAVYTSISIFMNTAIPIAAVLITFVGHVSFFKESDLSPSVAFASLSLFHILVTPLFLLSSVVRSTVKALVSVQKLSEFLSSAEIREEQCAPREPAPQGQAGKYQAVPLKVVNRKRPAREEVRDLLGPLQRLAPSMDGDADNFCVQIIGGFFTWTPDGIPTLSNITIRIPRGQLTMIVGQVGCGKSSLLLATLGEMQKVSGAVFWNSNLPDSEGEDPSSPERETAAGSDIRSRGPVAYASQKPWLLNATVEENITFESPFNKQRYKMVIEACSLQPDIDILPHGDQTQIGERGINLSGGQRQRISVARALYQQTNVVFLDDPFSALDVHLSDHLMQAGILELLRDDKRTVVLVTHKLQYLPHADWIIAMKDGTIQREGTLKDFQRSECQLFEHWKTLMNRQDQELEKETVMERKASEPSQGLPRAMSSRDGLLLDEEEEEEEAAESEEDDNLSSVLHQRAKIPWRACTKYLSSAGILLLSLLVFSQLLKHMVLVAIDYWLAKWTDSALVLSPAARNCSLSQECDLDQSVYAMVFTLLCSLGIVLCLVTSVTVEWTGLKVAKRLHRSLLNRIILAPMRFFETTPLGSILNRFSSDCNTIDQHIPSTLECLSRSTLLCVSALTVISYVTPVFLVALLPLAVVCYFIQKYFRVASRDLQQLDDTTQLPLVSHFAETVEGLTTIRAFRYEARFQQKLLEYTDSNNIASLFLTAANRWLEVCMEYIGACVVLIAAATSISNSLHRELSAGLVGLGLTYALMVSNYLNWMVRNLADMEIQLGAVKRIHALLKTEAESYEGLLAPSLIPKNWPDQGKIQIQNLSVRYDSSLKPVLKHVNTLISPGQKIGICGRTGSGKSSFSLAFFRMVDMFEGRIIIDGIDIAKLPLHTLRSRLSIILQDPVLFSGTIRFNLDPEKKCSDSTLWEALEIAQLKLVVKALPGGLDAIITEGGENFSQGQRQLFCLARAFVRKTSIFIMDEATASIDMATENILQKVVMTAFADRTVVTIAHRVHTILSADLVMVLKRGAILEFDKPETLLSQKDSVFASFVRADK

Question: What does the source list for `CN[C@@H](Cc1c[nH]c2ccccc12)C(=O)N1CC(c2ccccc2)C(c2ccc(Cl)cc2)=N1` (stereo partly drawn) [Compound 1, (2S)-1-[3-(4-chlorophenyl)-4-phenyl-4,5-dihydro-1H-pyrazol-1-yl]-3-(1H-indol-3-yl)-N-methyl-1-oxopropan-2-amine]?
Answer: effect on insulin secretion [1]: significantly inhibited insulin secretion; pki (SUR1) compared with pki (SUR2) (hamster SUR1): pki (SUR1) larger than pki (SUR2)

Question: How did the “effect on insulin secretion” value [1] turn out when `CN(C)CCNC(=NS(=O)(=O)N1CCCCC1)N1CC(c2ccccc2)C(c2ccc(Cl)cc2)=N1` (stereo not drawn) [Compound 2, 3-(4-chlorophenyl)-N-[2-(dimethylamino)ethyl]-4-phenyl-N′-(piperidin-1-ylsulfonyl)-4,5-dihydro-1H-pyrazole-1-carboximidamide] was run?
Answer: Its value is “significantly inhibited insulin secretion (only at 0-30 min for compound 2)”.

Question: `CNC(=NS(=O)(=O)N1CCCCC1)N1C[C@H](c2ccccc2)C(c2ccc(Cl)cc2)=N1` [Compound 3, (4S)-3-(4-chlorophenyl)-N-methyl-4-phenyl-N′-(piperidin-1-ylsulfonyl)-4,5-dihydro-1H-pyrazole-1-carboximidamide] was tested. Which “amount of inhibition of insulin secretion compared with diazoxide” value [1] did it give?
Answer: The value was “notably greater than diazoxide at 30-60 min”.

Question: What about the “effect on insulin secretion” value [1] of the same molecule?
Answer: Its value is “significantly inhibited insulin secretion at both 0-30 and 30-60 min”.

Question: `CNC(=NS(=O)(=O)c1ccc(C(F)(F)F)cc1)N1CC(c2cccnc2)C(c2ccc(Cl)cc2)=N1` (stereo not drawn) [Compound 4, 3-(4-chlorophenyl)-N-methyl-4-pyridin-3-yl-N′-{[4-(trifluoromethyl)phenyl]sulfonyl}-4,5-dihydro-1H-pyrazole-1-carboximidamide] was tested. Which “amount of inhibition of insulin secretion compared with diazoxide” value [1] did it give?
Answer: Its value is “notably greater than diazoxide at 30-60 min”.

Question: What about the “effect on insulin secretion” value [1] of the same molecule?
Answer: Its value is “significantly inhibited insulin secretion at both 0-30 and 30-60 min”.

Question: And the “pki (SUR1) compared with pki (SUR2)” value (hamster SUR1)?
Answer: The value was “pki (SUR1) larger than pki (SUR2)”.

Question: How did the “effect on insulin secretion at 4 mM glucose” value ([2]; Phase 1, 10 μM, 4 mM glucose) turn out when `CNC(=NS(=O)(=O)c1ccc(Cl)cc1)N1C[C@H](c2ccccc2)C(c2ccc(Cl)cc2)=N1` [Compound A, (4S)-3-(4-chlorophenyl)-N′-[(4-chlorophenyl)sulfonyl]-N-methyl-4-phenyl-4,5-dihydro-1H-pyrazole-1-carboximidamide] was run?
Answer: Its value is “no effect of compound A on insulin secretion at 4 mM glucose in two experiments and a slight effect to stimulate insulin secretion in one experiment”.

Question: And the “effect on insulin secretion at 8 mM glucose” value ([2]; Phase 1, 10 μM, 8 mM glucose)?
Answer: Its value is “completely inhibited insulin secretion at 8 mM glucose in two of the experiments and moderately inhibited insulin secretion in the third experiment”.

Question: And the “effect on insulin secretion at 16 mM glucose” value ([2]; Phase 1, 10 μM, 16 mM glucose)?
Answer: Its value is “moderate effect to inhibit insulin secretion in one experiment but only a slight effect in the other experiment”.

Question: What about the “dose dependency of effect on mean insulin secretion” value ([2]; Phase 2, 11 mM glucose) of the same molecule?
Answer: Its value is “dose-dependent effects to inhibit mean insulin secretion”.

Question: What about the “doses at which inhibition of mean insulin secretion attained statistical significance” value ([2]; Phase 2, 11 mM glucose) of the same molecule?
Answer: The value was 3 µM and 10 µM.

Question: And the “effect on time-dependent insulin secretion” value ([2]; Phase 2, 11 mM glucose, 10 μM)?
Answer: The value was “clearly more effective than the comparable (10 μM) dose of diazoxide”.

Question: What about the “reduction of mean insulin secretion” value ([2]; Phase 2, 11 mM glucose, 10 μM) of the same molecule?
Answer: Its value is 74%.

Question: What about the “dose dependency of effect on time-dependent insulin secretion” value ([2]; Phase 2, 11 mM glucose, four doses) of the same molecule?
Answer: Its value is “dose-dependent effects to block insulin secretion”.

Question: What about the “pki (SUR1) compared with pki (SUR2)” value (hamster SUR1) of the same molecule?
Answer: The value was “pki (SUR1) larger than pki (SUR2)”.

Question: What about the “decrease of body weight in comparison to vehicle-treated rats” value (from here on “decrease of body weight in comparison”) ([3]; 3 mg/kg p.o. daily) of the same molecule?
Answer: The value was 5.3%.

Question: What about the “decrease of body weight in comparison” value ([3]; 10 mg/kg p.o. daily) of the same molecule?
Answer: Its value is 6.7%.

Question: And the “decrease of body weight in comparison” value ([3]; 30 mg/kg p.o. daily)?
Answer: Its value is 5.9%.

Question: What about the “effect on body weight during treatment” value ([3]; 3, 10 and 30 mg/kg p.o., 14 days) of the same molecule?
Answer: The value was “sustained non dose-dependent reduction in body weight at all doses administered”.

Question: What about the “body weight on interruption of drug treatment” value ([3]; 5-day post-treatment period) of the same molecule?
Answer: The value was “progressively returned towards control levels”.

Question: How did the “effect on time-dependent insulin secretion” value ([2]; Phase 2, 11 mM glucose, 10 μM) turn out when `CC1=NS(=O)(=O)c2cc(Cl)ccc2N1` [Diazoxide, diazoxide, reference compound] was run?
Answer: Its value is “only a partial inhibition”.

Question: What about the “reduction of mean insulin secretion” value ([2]; Phase 2, 11 mM glucose, 10 μM) of the same molecule?
Answer: The value was 50%.

Question: And the “effect on time-dependent insulin secretion” value ([2]; Phase 2, 11 mM glucose, 100 μM)?
Answer: The value was “almost completely blocked the stimulatory effect of 11 mM glucose”.

Question: And the “reduction of mean insulin secretion” value ([2]; Phase 2, 11 mM glucose, 100 μM)?
Answer: Its value is 94%.

Question: With `CC1(NC2=Nc3cc(Cl)sc3S(=O)(=O)N2)CC1` [NN-414] as the molecule, how does the “potency to inhibit glucose-stimulated insulin release relative to diazoxide” value [4] read?
Answer: Its value is 100 times.
